Results taken from US12053480B2, “Methods and pharmaceutical compositions for treating peripheral demyelinating diseases” (INSERM (INSTITUT NATIONAL DE LA SANTE ET DE LA RECHERCHE …, priority 2015, dated 2024).
Entries after “also recorded” stand apart in the source; their conditions may differ.

Legend:
VDAC1 = target: T1, VDAC1 (Mus musculus, UniProt Q60932); test: Mitochondrial calcium imaging (mito-GCaMP2, multiphoton) in mSC of mouse sciatic nerve, nerve crush model; format: in vivo; settings: mito-GCaMP2; VDAC1 silenced or drug given before crush
T1 construct: strongly expressed in mSC mitochondria; from tissue; host or cells: myelinating Schwann cells (mSC) of the sciatic nerve of living mice (wild type; db/db and +/db in A10)
Procedure: Mice were anesthetized with isoflurane inhalation and placed under a Stemi2000 microscope (Zeiss). Incision area was shaved and cleaned using betadine solution. After incision, the gluteus superficialis and biceps femoris muscles were separated to reveal the cavity traversed by the sciatic nerve. The nerve was lift out using spatula and a thin glass needle filled with viral solution (8 μl) was introduced into the nerve with a micromanipulator. This solution was injected over 30 min with short pressure pulses using a Picospritzer III (Parker Hannifin) coupled to a pulse generator. After injection, the nerve was replaced into the cavity, the muscles were readjusted, and the wound was closed using clips (for further details see Gonzalez et al., 2014^3).
TRO19622 drug (Tocris bioscience, Ref. 2906) was diluted in ethanol to 20 mM and then, the solution was diluted in sterile PBS to 20 μM. TRO19622 treatments were realized by 3 mg/kg intraperitoneal (IP) injections of 20 mM solution or by intra sciatic nerve injections of 2 μl of drug solution 2 μM using a Hamilton syringe or a glass needle in sterile conditions 30 minutes before multiphoton image acquisitions or immunohistochemistry and demyelination studies respectively. Methyl jasmonate drug (Sigma-Aldrich, Ref. 392707) was diluted in 1 ml of sterile PBS to 1M or 3M. Methyl jasmonate treatments were realized by intra sciatic nerve injections of 1 μl of drug solution using a glass needle and micromanipulator in sterile conditions following the same virus injections procedure (see in vivo virus injection in the sciatic nerve method) two hours before multiphoton image acquisition. […] All drug concentrations were previously evaluated by Bordet et al, 2007^5; Goldin et al, 2008^6; Sharov et al, 2007^7.
First injected mouse was anesthetized with 5% of isoflurane a 1.5% of oxygen into the anesthesia system box (World Precision Instruments, Ref. EZ-B800) for 5 minutes. Anesthesia controls were realized^8. Then, mouse was placed in anesthesia mask and the incision area was shaved and cleaned with betadine and ethanol 70% solution. Incision was realized using a scalpel and the skin was retracted using forceps in order to expose the gluteus superficialis and bleeps femoris muscles. Next, the connective tissue that connects both muscles was cut and the sciatic nerve was gently lifted out using a spatula. A flexible bridge was slide below sciatic nerve and it was placed into a plastic first pool fixed to the bridge. Mouse was placed under the multiphoton microscope, the bridge was fixed using magnetic brackets to avoid physiological movement and mouse legs were fixed using clippers. Microscope dark box temperature is controlled to 37° C. during all time-lapse imaging. Finally, a second pool was fixed to the first pool using a drop of agarose low melting 3% (Promega, Ref. V2111) in Leibovitz's L15 medium (Gibco Life Technologies) and filled with deionized water to immerse the objectives 20× or 63× (Carl Zeiss Microscopy).
All time-lapse images were obtained with a multiphoton microscope Zeiss LSM 7 MP OPO. Mitochondria motility images were acquired by time-lapse recording of one image every five minutes during five hours at 920 nm. GCaMP2 and SypHer probe images were acquired by time-lapse recording of one image every fifteen minutes during five hours at 985 nm. Images were acquired to constant 1% of laser intensity to 100 msec of acquisition time with 512×512 resolution and 10 images of z-stack of 20 μm. Images were saved in Zeiss .czi format and processed using Image J program. For further details see Gonzalez et al., 201X^8
To characterize mitochondria physiology during the demyelination process we combined two in vivo methods. We used the nerve crush model to reliably induce demyelination in the mouse sciatic nerve and a viral approach^19 allowing the expression of different fluorescent probes selectively into mitochondria of myelinating Schwann cells (mSC) in mouse sciatic nerve.

[1] = tested on: phospho-ERK1/2, phospho-p38, phospho-JNK and phospho-c-jun; test: Western blot of MAPK demyelination pathways in CMT1A rats; format: in vivo, rat; settings: for activation of phospho-ERK1/2, phospho-p38, phospho-JNK and phospho-c-jun: after 15 and 30 days of treatment
Source text: While demyelinating diabetes peripheral neuropathy is a commonly acquired disease, demyelination is also the characteristic feature of a large number of inherited diseases called Charcot-Marie-Tooth diseases (CMT). We therefore sought to test whether the inhibition of VDAC1 function could prevent demyelination in these diseases. We choose CMT1A rat strain^42 as this is arguably the most representative animal model of Charcot-Marie-Tooth disease, mimicking CMT1A the most prevalent CMT in humans^10. Twelve weeks old CMT1A rats were daily treated with TRO19622 for 15 or 30 days and one day or two months after treatment, we analyzed MAPK demyelination pathways by western blot. […] However, these effects disappeared two months after treatment. Then we analyzed phospho-c-jun activation in mSC using immunohistochemistry. […] Next, we measured Schwann cell demyelination and g-ratio by toluidine blue staining on semi-thin sciatic nerve sections and on thin sections using electron microscopy.

T1 sequence (Q60932 14-296): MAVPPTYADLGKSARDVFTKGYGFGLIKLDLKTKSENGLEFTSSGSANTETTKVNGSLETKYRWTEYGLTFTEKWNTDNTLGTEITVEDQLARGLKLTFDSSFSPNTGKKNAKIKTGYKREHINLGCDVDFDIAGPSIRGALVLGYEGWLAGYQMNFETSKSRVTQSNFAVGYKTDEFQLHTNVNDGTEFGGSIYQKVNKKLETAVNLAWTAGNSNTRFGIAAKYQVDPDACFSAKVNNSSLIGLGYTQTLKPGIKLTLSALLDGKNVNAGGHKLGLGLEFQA

CC(C)CCC[C@@H](C)[C@H]1CC[C@H]2[C@@H]3CCC4=C/C(=N\O)CC[C@]4(C)[C@H]3CC[C@]12C [TRO19622, (NZ)—N-[(8S,9S,10R,13R,14S,17R)-10,13-dimethyl-17-[(2R)-6-methylheptan-2-yl]-1,2,6,7,8,9,11,12,14,15,16,17-dodecahydrocyclopenta[a]phenanthren-3-ylidene]hydroxylamine]
mitochondrial calcium release in mSC after nerve crush (VDAC1): able to block calcium release from mitochondria; also recorded: completely abolished; also recorded: blocks mitochondrial calcium release | activation of phospho-ERK1/2, phospho-p38, phospho-JNK and phospho-c-jun [1]: significant down-regulation | activation of phospho-ERK1/2, phospho-p38, phospho-JNK and phospho-c-jun ([1]; listed as TRO16922): prevented | down-regulation of MAPK demyelination pathways after treatment stop ([1]; two months after treatment): disappeared
